Results published in patent publication US20250042862A1, “AROMATIC HETEROCYCLIC COMPOUND AND APPLICATION THEREOF” (Shanghai Institute of Materia Medica, Chinese Academy of …, priority 2021, published 2025).

Molecular target: human recombinant LSD1 protein (Homo sapiens (Human), UniProt O60341)
Experiment: In vitro enzyme inhibition activity assay - LSD1 (Lance Ultra TR-FRET)
Type: biochemical
Conditions: all compounds tested in the form of hydrochloride
Protocol: The purpose of this experiment was to test the in vitro inhibitory activity of the compounds against LSD1. The human recombinant LSD1 protein used in the experiment was purchased from Active Motif, and the enzyme level activity testing assay of LSD1 was performed using the Lance Ultra LSD1 Histone H3 Lysine 4 Demethylase Assay Kit (PerkinElmer). Tris-buffer (50 mMTris-HCl, 50 mMNaCl, 0.01% Tween-20, 1 mM DTT, 10 μM FAD, 10% glycerol, pH 9.0) was first prepared, and after preparation, the LSD1 fractions required for test were placed in this buffer and incubated for one hour at room temperature; the fractions included 4 μL of substrate solution ([…] Bio-H3K4me2, 1-24aa), 4 μL of enzyme solution (4 nM LSD1), and 2 μL of inhibitor in a 384-well microplate. After these operations, another 5 μL of assay mixture containing Eu-labeled H3K4me0 antibody and ULight-Streptavidin anti-biotin protein was added to the system, after which the fluorescence intensity of the components to be tested was detected by using Envision (PerkinElmer) in TR-FRET mode (excitation wavelength of 320 nm, emission wavelength of 620 nm). The test was repeated a total of three times to minimize errors. The final IC50 data were calculated by the software GraphPad Prism 5, and finally the sigmoidal dose-response (variable slope) method was used to obtain the fitted curve.
The LSD1 inhibitory activities of representative compounds of the present application as well as the positive control compound CC90011 were provided in Table 2. All compounds were tested in the form of hydrochloride.

| SMILES | IC50 [nM] |
| --- | --- |
| N#Cc1ccc(-c2nc(N3CCC(N)CC3)nc3ccc(-c4c(F)cccc4C(F)(F)F)cc23)cc1F [Compound 19, 4-(2-(4-aminopiperidin-1-yl)-6-(2-fluoro-6-(trifluoromethyl)phenyl)quinazolin-4-yl)-2-fluorobenzonitrile] | ≤ 30 |
| N#Cc1ccc(-c2nc(N3CCC[C@@H](N)CC3)nc3ccc(-c4c(F)cccc4C(F)(F)F)cc23)cc1F (stereo in doubt) [Compound 89, 4-(2-(4-aminoazepan-1-yl)-6-(2-fluoro-6-(trifluoromethyl)phenyl)quinazolin-4-yl)-2-fluorobenzonitrile] | ≤ 30 |
| N#Cc1ccc(-c2nc(N3CCC(N)CC3)nc3c2CN(c2ccccc2C(F)(F)F)CC3)cc1F [Compound 92, 4-(2-(4-aminopiperidin-1-yl)-6-(2-(trifluoromethyl)phenyl)-5,6,7,8-tetrahydropyrido[4,3-d]pyrimidin-4-yl)-2-fluorobenzonitrile] | 30 to 300 |
| N#Cc1ccc(-c2nc(N3CCC(N)CC3)nc3c(F)cc(-c4c(F)cccc4C(F)(F)F)cc23)cc1F [Compound 82] | ≤ 30 |
| N#Cc1ccc(-c2nc(N3C4CCC3CC(N)C4)nc3ccc(-c4c(F)cccc4C(F)(F)F)cc23)cc1F (stereo not shown) [Compound 69, 4-(2-(3-amino-8-azabicyclo[3.2.1]octan-8-yl)-6-(2-fluoro-6-(trifluoromethyl)phenyl)quinazolin-4-yl)-2-fluorobenzonitrile] | ≤ 30 |
| Cn1c(=O)c(-c2ccccc2C(F)(F)F)cc2c(-c3ccc(C#N)c(F)c3)nc(N3CCC(N)CC3)nc21 [Compound 99, 4-(2-(4-aminopiperidin-1-yl)-8-methyl-7-oxo-6-(2-trifluoromethylphenyl)-7,8-dihydropyrido[2,3-d]pyrimidin-4-yl)-2-fluorobenzonitrile] | ≤ 30 |
| N#Cc1ccc(-c2nc(N3CCC(N)CC3)nc3ccc(-c4cccc(F)c4C(F)(F)F)cc23)cc1F [Compound 23, 4-(2-(4-Aminopiperidin-1-yl)-6-(3-fluoro-2-(trifluoromethyl)phenyl)quinazolin-4-yl)-2-fluorobenzonitrile] | ≤ 30 |
| N#Cc1ccc(-c2nc(NC[C@H]3CCNC3)nc3ccc(-c4cccc(O)c4F)cc23)cc1F [Compound 61, (S)-2-fluoro-4-(6-(2-fluoro-3-hydroxyphenyl)-2-((pyrrolidin-3-ylmethyl)amino)quinazolin-4-yl)benzonitrile] | 30 to 300 |
| N#Cc1ccc(-c2nc(N3CC4C(N)C4C3)nc3ccc(-c4c(F)cccc4C(F)(F)F)cc23)cc1F (stereo not shown) [Compound 65, 4-(2-(6-Amino-3-azabicyclo[3.1.0]hexan-3-yl)-6-(2-fluoro-6-(trifluoromethyl)phenyl)quinazolin-4-yl)-2-fluorobenzonitrile] | 30 to 300 |
| Cc1cccc(-c2ccc3nc(N4CCC(N)CC4)nc(-c4ccc(C#N)c(F)c4)c3c2)c1 [Compound 8, 4-(2-(4-aminopiperidin-1-yl)-6-(m-methylphenyl)quinazolin-4-yl)-2-fluorobenzonitrile] | 30 to 300 |
| N#Cc1ccc(-c2nc(N3CCC(N)CC3)nc3c2CN(c2c(F)cccc2C(F)(F)F)CC3)cc1F [Compound 93, 4-(2-(4-aminopiperidin-1-yl)-6-(2-fluoro-6-(trifluoromethyl)phenyl)-5,6,7,8-tetrahydropyrido[4,3-d]pyrimidin-4-yl)-2-fluorobenzonitrile] | 30 to 300 |
| COc1ccc(-c2ccc3nc(N4CCC(N)CC4)nc(-c4ccc(C#N)cc4)c3c2)cc1F [Compound 25, 4-(2-(4-aminopiperidin-1-yl)-6-(3-fluoro-4-methoxyphenyl)quinazolin-4-yl)benzonitrile] | 30 to 300 |
| N#Cc1ccc(-c2nc(NC[C@H]3CCNC3)nc3ccc(-c4c(F)cccc4Cl)cc23)cc1F [Compound 55] | ≤ 30 |
| N#Cc1ccc(-c2nc(NC[C@H]3CCNC3)nc3ccc(-c4cc(F)ccc4C(F)(F)F)cc23)cc1F [Compound 56, (S)-4-(6-(5-fluoro-2-(trifluoromethyl)-2-(pyrrolidin-3-ylmethyl)amino)quinazolin-4-yl)-2-fluorobenzonitrile] | 30 to 300 |
| Cc1cccc(Cl)c1-c1ccc2nc(NC[C@H]3CCNC3)nc(-c3ccc(C#N)c(F)c3)c2c1 [Compound 53] | ≤ 30 |
| N#Cc1ccc(-c2nc(N3CCC4(CCCN4)CC3)nc3ccc(-c4c(F)cccc4C(F)(F)F)cc23)cc1F [Compound 77, 2-Fluoro-4-(6-(2-fluoro-6-(trifluoromethyl)phenyl)-2-(1,8-diazaspiro[4.5]dec-8-yl)quinazolin-4-yl)benzonitrile] | ≤ 30 |
| N#Cc1ccc(-c2nc(NC[C@H]3CCNC3)nc3ccc(-c4c(F)ccc(O)c4F)cc23)cc1F [Compound 60] | 30 to 300 |

System: MV4-11 cell line transplanted tumor
Experiment: In vivo efficacy evaluation in mouse transplanted tumor model
Design: species or system mouse (female NU/NU nude mice)
Conditions: MV4-11 xenograft in NU/NU nude mice; 20 mg/kg by gavage every day for 21 days
Protocol: Experimental purpose: To test the in vivo efficacy of compounds in mouse transplanted tumor model Experimental materials: female NU/NU nude mice, MV4-11 cell line Experimental methods: female NU/NU nude mice, weighing 20±2 g, were inoculated with MV4-11 cell line in the right axillary subcutaneous with a cell inoculation amount of 5×10^6/mouse. When the tumor formed, the diameter of the transplanted tumor was measured with vernier calipers, and the tumor was grew up to 100-300 mm^3; the animals were divided into model control group and administration group according to their weights and tumor volumes, with 6 animals per group. The administration group was administered with a suspension ground with 0.5% CMC-Na, while the model control group was given an equal amount of blank solvent. After grouping, the drug was administered orally every day at a dose of 20 mg/kg for 21 days. During the experiment, the diameter of the transplanted tumor was measured and the weight of the mice was weighed twice a week, and the tumor tissues were taken from the animal after euthanasia on the 21st day. […]

| SMILES | relative tumor proliferation rate T/C |
| --- | --- |
| N#Cc1ccc(-c2nc(N3CCC(N)CC3)nc3ccc(-c4c(F)cccc4C(F)(F)F)cc23)cc1F [Compound 19, 4-(2-(4-aminopiperidin-1-yl)-6-(2-fluoro-6-(trifluoromethyl)phenyl)quinazolin-4-yl)-2-fluorobenzonitrile] | less than 50% |
| N#Cc1ccc(-c2nc(N3CCC[C@@H](N)CC3)nc3ccc(-c4c(F)cccc4C(F)(F)F)cc23)cc1F (stereo in doubt) [Compound 89, 4-(2-(4-aminoazepan-1-yl)-6-(2-fluoro-6-(trifluoromethyl)phenyl)quinazolin-4-yl)-2-fluorobenzonitrile] | less than 50% |
